Where two headings read alike, the source gives them in different places. Starred links: 1 amine or outer side, 2 acyl side, 3 side chain; linkers in the order of their positions; H or OH if unused. Positions of bridges follow the written chain, without caps; N, C: chain ends. Residues, ends and D or L forms follow the SMILES beside them. *: point of attachment. C18 diacid = O=C(O)CCCCCCCCCCCCCCCCC(=O)*; γGlu = O=C(O)[C@H](CCC(=O)[*:2])N[*:1]; AEEA = NCCOCCOCC(=O)O
Columns and labels:
[1] = PK after i.v. and s.c. administration to Göttingen minipig; settings: female, in vivo, Göttingen Minipig; for clearance: read-out: CL (ml/hr/kg), Intravenous PK (converted); for bioavailability: s.c. bioavailability, read-out: F (%), Subcutaneous PK
Method in brief: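 Female Göttingen minipigs (6-12 months, ~22 kg) and domestic LYD pigs (4-5 months, ~80 kg) given CNP compounds i.v. (30-60 or 15-43 nmol/kg) or s.c. neck (55-62 or 20-30 nmol/kg) via catheter/pen. EDTA plasma sampled up to 14 days, CNP and cGMP by LC-MS; non-compartmental PK, F from dose-normalized AUC s.c./i.v.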

neprilysin (NEP) = neprilysin (NEP) (Homo sapiens, UniProt P08473); experiment: In vitro neprilysin stability; settings: recombinant human neprilysin (rhNEP), pH 7.4
Procedure: Therefore, an in vitro neprilysin stability assay was set up to test the neprilysin mediated degradation of selected CNP compounds.
Procedure: In short, the assay buffer consisted of PBS-buffer (pH 7.4, ThermoFisher Scientific) with a final concentration of 0.005% v/v tween 20 (Sigma-Aldrich). Recombinant human neprilysin (rhNEP; R&D Systems) and the CNP compounds were dissolved in assay buffer. Native CNP22 (0065, Chem. 1) was included as positive control on each day of incubation. Initially, the CNP compound (the final concentration was 1000 nM) was pre-incubated in assay buffer for 10 min at 37° C. The assay was started by adding either rhNEP (final concentration was 2 μg protein per mL) or assay buffer (adsorption experiment) and the incubation was conducted at 37° C. […] The mixture was centrifuged at 13000 rpm at 4° C. for 20 minutes. After centrifugation, one volume of supernatant was mixed with one volume of Milli-Q water.
Analysis by LCMS: The mixture was analysed by LCMS using an Acquity UPLC Peptide CSH C18 analytical column from Waters (130 Å, 1.7 μm, 1*50 mm) operated at 60° C. A gradient elution was conducted with a Nexera UHPLC system (Shimadzu) using mobile phase A (consisting of Milli-Q water with 0.1% formic acid) and mobile phase B (consisting of acetonitrile with 0.1% formic acid). The flow was 0.3 ml/min. A zenoTOF 7600 mass spectrometer (Sciex) was used as detector and operated in positive electrospray ionisation mode. Data was recorded in full scan mode (m/z 300-1700).
Calibration curves were prepared in assay buffer and treated as study samples. These samples were used for calculating the concentration of the relevant CNP compound in the in vitro samples. Quality control samples were included. For at least 75% of the standards and QCs, the deviation between nominal and calculated concentration was below 20%.
All incubations were conducted in duplicate. Data was reported as percent remaining at 90 min (based on calculated concentrations) compared to the average concentration in the 0.5-minute time point samples.

[2] = iv, i.v., read-out: T½, iv (converted)
[3] = sc, s.c., read-out: T½, sc (converted)

Sequence of neprilysin (NEP) (P08473 whole entry): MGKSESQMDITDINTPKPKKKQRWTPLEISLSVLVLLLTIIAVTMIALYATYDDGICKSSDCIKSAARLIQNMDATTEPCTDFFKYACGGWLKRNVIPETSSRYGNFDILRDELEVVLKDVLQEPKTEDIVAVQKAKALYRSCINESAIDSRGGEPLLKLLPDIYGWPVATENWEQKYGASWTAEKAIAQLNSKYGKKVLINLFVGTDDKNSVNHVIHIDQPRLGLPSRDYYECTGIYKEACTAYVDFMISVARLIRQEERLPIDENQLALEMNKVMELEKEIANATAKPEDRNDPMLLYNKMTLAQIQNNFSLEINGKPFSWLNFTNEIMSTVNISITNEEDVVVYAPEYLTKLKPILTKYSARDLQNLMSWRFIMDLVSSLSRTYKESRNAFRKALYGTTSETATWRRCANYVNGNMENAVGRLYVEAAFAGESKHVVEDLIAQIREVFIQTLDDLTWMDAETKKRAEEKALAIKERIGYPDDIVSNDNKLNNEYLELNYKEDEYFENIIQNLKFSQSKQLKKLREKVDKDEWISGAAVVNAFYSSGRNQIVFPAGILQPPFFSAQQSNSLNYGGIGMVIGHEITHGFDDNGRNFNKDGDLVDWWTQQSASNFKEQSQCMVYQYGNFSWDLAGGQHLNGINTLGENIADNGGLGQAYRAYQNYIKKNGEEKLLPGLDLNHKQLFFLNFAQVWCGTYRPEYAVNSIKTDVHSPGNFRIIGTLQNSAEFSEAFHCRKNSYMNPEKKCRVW

| SMILES | clearance ([1]; iv, i.v.) | half-life [1, 2] | bioavailability ([1]; sc) | half-life [1, 3] | remaining at 1.5 h, 1000 nM (neprilysin (NEP)) |
| --- | --- | --- | --- | --- | --- |
| CC[C@H](C)[C@@H]1NC(=O)[C@H](CCCNC(=N)N)NC(=O)[C@H](CC(=O)O)NC(=O)[C@H](CC(C)C)NC(=O)[C@@H]2CCCN2C(=O)[C@H](CC(C)C)NC(=O)CNC(=O)[C@H](Cc2ccccc2)NC(=O)[C@@H](NC(=O)CNC(=O)[C@H](CCC(N)=O)NC(=O)[C@H](CO)NC(=O)[C@H](CC(C)C)NC(=O)CNC(=O)[C@H](CCCCN)NC(=O)[C@H](CCCCN)NC(=O)[C@H](CCC(N)=O)NC(=O)[C@H](C)NC(=O)CNC(=O)[C@H](CCCCN)NC(=O)[C@H](Cc2ccc(O)cc2)NC(=O)COCCOCCNC(=O)COCCOCCNC(=O)COCCOCCNC(=O)COCCOCCNC(=O)CC[C@H](NC(=O)CC[C@H](NC(=O)CC[C@H](NC(=O)CCCCCCCCCCCCCCCCC(=O)O)C(=O)O)C(=O)O)C(=O)O)CSSC[C@@H](C(=O)O)NC(=O)CNC(=O)[C@H](CC(C)C)NC(=O)CNC(=O)[C@H](CO)NC(=O)[C@H](CC(C)C)NC(=O)[C@H](CO)NC(=O)CNC1=O [Compound 9480] ({C18 diacid-γGlu-γGlu-γGlu-AEEA-AEEA-AEEA-AEEA}-YKGAQKKGLSQGCFGLPLDRIGSLSGLGC-OH; disulfide 13-29) | 1.13 mL/h/kg | 74 h | 87% | 67 h | 98.3% |
| CC[C@H](C)[C@@H]1NC(=O)[C@H](CCCNC(=N)N)NC(=O)[C@H](CC(=O)O)NC(=O)[C@H](CC(C)C)NC(=O)[C@@H]2CCCN2C(=O)[C@H](CC(C)C)NC(=O)CNC(=O)[C@H](Cc2ccccc2)NC(=O)[C@@H](NC(=O)CNC(=O)[C@H](CO)NC(=O)[C@H](CO)NC(=O)[C@H](CC(C)C)NC(=O)CNC(=O)[C@H](CCCCN)NC(=O)[C@H](CCCCN)NC(=O)[C@H](CCC(N)=O)NC(=O)[C@H](C)NC(=O)CNC(=O)[C@H](CCCCN)NC(=O)[C@H](Cc2ccc(O)cc2)NC(=O)[C@H](CCCCN)NC(=O)[C@H](CCCNC(=N)N)NC(=O)[C@H](C)NC(=O)[C@H](CCC(N)=O)NC(=O)[C@@H]2CCCN2C(=O)[C@H](Cc2c[nH]cn2)NC(=O)[C@H](CCC(=O)O)NC(=O)[C@H](CCC(N)=O)NC(=O)CC[C@H](NC(=O)CC[C@H](NC(=O)CC[C@H](NC(=O)CC[C@H](NC(=O)CC[C@H](NC(=O)CCCCCCCCCCCCCCCCC(=O)O)C(=O)O)C(=O)O)C(=O)O)C(=O)O)C(=O)O)CSSC[C@@H](C(=O)O)NC(=O)CNC(=O)[C@H](CC(C)C)NC(=O)CNC(=O)[C@H](CO)NC(=O)[C@H](CC(C)C)NC(=O)[C@H](CO)NC(=O)CNC1=O [Compound 9482] ({C18 diacid-γGlu-γGlu-γGlu-γGlu-γGlu}-QEHPQARKYKGAQKKGLSSGCFGLPLDRIGSLSGLGC-OH; disulfide 21-37) | 1.07 mL/h/kg | 89 h | 89% | 84 h | 96.3% |
| CC[C@H](C)[C@@H]1NC(=O)[C@H](CCCNC(=N)N)NC(=O)[C@H](CC(=O)O)NC(=O)[C@H](CC(C)C)NC(=O)[C@@H]2CCCN2C(=O)[C@H](CC(C)C)NC(=O)CNC(=O)[C@H](Cc2ccccc2)NC(=O)[C@@H](NC(=O)CNC(=O)[C@H](CCC(N)=O)NC(=O)[C@H](CO)NC(=O)[C@H](CC(C)C)NC(=O)CNC(=O)[C@H](CCCCN)NC(=O)[C@H](CCCCN)NC(=O)[C@H](CCC(N)=O)NC(=O)[C@H](C)NC(=O)CNC(=O)[C@H](CCCCN)NC(=O)[C@H](Cc2ccc(O)cc2)NC(=O)[C@H](CCCCN)NC(=O)[C@H](CCCNC(=N)N)NC(=O)[C@H](C)NC(=O)COCCOCCNC(=O)COCCOCCNC(=O)COCCOCCNC(=O)COCCOCCNC(=O)CC[C@H](NC(=O)CC[C@H](NC(=O)CC[C@H](NC(=O)CC[C@H](NC(=O)CC[C@H](NC(=O)CCCCCCCCCCCCCCCCC(=O)O)C(=O)O)C(=O)O)C(=O)O)C(=O)O)C(=O)O)CSSC[C@@H](C(=O)O)NC(=O)CNC(=O)[C@H](CC(C)C)NC(=O)CNC(=O)[C@H](CO)NC(=O)[C@H](CC(C)C)NC(=O)[C@H](CO)NC(=O)CNC1=O [Compound 9407] ({C18 diacid-γGlu-γGlu-γGlu-γGlu-γGlu-AEEA-AEEA-AEEA-AEEA}-ARKYKGAQKKGLSQGCFGLPLDRIGSLSGLGC-OH; disulfide 16-32) | 1.2 mL/h/kg | 82 h | 86% | 92 h | 96.6% |

— patent US20240209028A1, “CNP COMPOUNDS” (priority 2022, published 2024)
